Results taken from patent US10422775B2, “Methods for determining relative response factors for impurity analysis using liquid chromatography with absorbance and evaporative light scattering detection” (Waters Technologies Corporation, priority 2016, dated 2019).
Where “and” joins values, the source holds several entries; their conditions need not be identical. Identical values can stand only once.

Experiments:
[1] = Quantitation of by-product 4-methylcyclohexylamine by MS (SIR m/z 114.1) in acidic degradation of glimepiride; type: physicochemical; conditions: for 4-MeCHA / 4-MeCHA (%): by-product formed from glimepiride, acidic degradation
Procedure: (§1) The separation of glimepiride and related compounds B and C was achieved on a 2.1 mm×50 mm, 1.8 μm, ACQUITY UPLC HSS T3 C18 column (Waters Corporation) under isocratic conditions. The mobile phase was 0.1% (v/v) formic acid in 60:40 water/acetonitrile at a flow rate of 0.8 mL/min. The column temperature was 30° C. with mobile phase pre-heating. Injection volume was 4 μL. The PDA settings included wavelength of 228 nm, sampling rate of 20 points per second. The ELSD was set to a gas pressure of 25 psi, the nebulizer in Cooling mode, drift tube temperature of 55° C. and the gain set to 100 with a data rate of 10 points per second. The make-up pump was used for post-column addition of solvent using the ISM at a flow rate of 0.3 mL/min with 0.1% (v/v) formic acid in methanol. The mass detector (ACQUITY QDa, Waters Corp, USA) utilized positive electrospray ionization (ESI+), with a cone voltage set to 5 V. The capillary voltage was 1.4 kV and the sampling rate was 5 points per second. The mass range collected was 100-600 Da with additional single ion recording (SIR) channels were collected simultaneously for the following m/z=114.1 Da, 374.6 Da, 432.2 Da and 513.7 Da. The SIR channels were measured with a cone voltage of 5 V.
Additionally, standards of 4-Methylcylohexylamine for quantitation by mass spectrometry. Specifically, a solution of 4-methylcylcohexylamine was prepared at a concentration of 0.4 mg/mL in 25:75 water/methanol. Working standards were then prepared by diluting the stock with 25:75 water/methanol. Individual calibration standards were prepared in triplicate at 0.04% (w/w), 0.2%, 0.5%, 1%, 2% and 5%, of the sample concentration of 0.250 mg/mL. The labeled purity of 4-methylcylcohexylamine was 99.7%.
Mass detection was employed for confirmation of the degradation pathway and to reconcile mass balance differences. During the formation of both related compound B and related compound C, there is a loss of 4-methylcyclohexylamine (see FIG. 14).
Quantitation of 4-methylcyclohexylamine was achieved utilizing standards prepared from commercially available reagents. Working standards were prepared to cover the range from 0.04 to 10% (0.1 to 25 ug/mL). A single ion recording channel measuring the response for m/z=114.1 Da was used for quantitation. The working standard was present as a mixture of both the cis and trans geometric isomers. These isomers were partially separated chromatographically, therefore the sum of the isomers was used for the calibration curve. The calibration curve was quadratic and converted to a linear relationship using a log-log fit over the desired quantitation range with the parameters listed in the following table.
Using the calibration curve, 4-methylcylcohexylamine was quantified in the acidic and oxidative degradation reactions over the period of 5 days.

[2] = Example 1: forced degradation (acid hydrolysis) of glimepiride with mass balance by UPLC-PDA using RRF; type: physicochemical; parameters: Amount: unit not given beside the values; conditions: acid hydrolysis 40° C.
Procedure: The controls and the samples that underwent acid hydrolysis were subjected to the following conditions.
Samples were analyzed using an ultra-high performance liquid chromatography system, specifically the ACUITY UPLC H-Class system from Waters Technologies Corporation. The system included photodiode array (PDA) and ELSD detectors, a quadrapole mass detector, specifically the Qda detector from Waters Technologies Corporation, and solvent and column managers. The PDA detector was used as a detector for UV-Vis absorbance. An ultra-high performance liquid chromatography column with 1.7 μm particle size and 2.1×50 mm column dimensions, specifically the ACUITY UPLC BEH C18 column from Waters Technologies Corporation, was used. The isocratic solvent manager was used with a flow rate of 0.3 mL/min and with 0.1% formic acid in methanol as a solvent. The following settings were used for the PDA and ELSD detectors.
Isocratic and gradients methods were developed for separation of impurities; however, the isocratic method was preferred as changing the solvent composition can affect the response and the size of droplets in ELSD. Mobile phase A was 0.1% (v/v) formic acid in water. Mobile phase B was 0.1% (v/v) formic acid in acetonitrile. The column temperature was 30° C. The injection volume was 2 μL. The flow rate was 0.8 mL/min. The isocratic tests included 60% mobile phase A and 40% mobile phase B. Conditions for the gradient tests are listed below. The system has a quaternary pump with four channels; however, only the A and B channels were used, which is why the C and D values are zero in the table below.
Two degradation impurities were present, which were labeled related compound B and related compound C. To ensure adequate separation and no co-elutions, peak purity was evaluated using a mass analysis window. FIG. 9 includes PDA peak purity and Mass analysis windows in the EMPOWER 3 data analysis software used to evaluate peak purity.
RRFs were calculated for the two impurities and the reciprocal of the RRF was used as a correction factor for each impurity to determine a corrected peak area for the impurity according to the following equation.
A reference sample was run by HPLC and the total corrected PDA peak area was determined for the reference sample as described below. The correction factor of the reciprocal of the RRF for an impurity was used to determine a corrected PDA peak area for each impurity in the reference sample. The total corrected PDA peak area was the sum of the corrected PDA peak area for each impurity and the PDA peak area for the API glimepiride. This total corrected PDA peak is the value used to calculate percentage recovery. Total Corrected peak area=peak areaAPI+ΣimpuritiesCorrected peak areaimpurity (8)
The degraded samples were run by HPLC and the correction factor of the reciprocal RRF for an impurity was used to obtain a corrected PDA peak area for each impurity in each degraded sample. For each degraded sample, a total corrected PDA peak area was calculated as the sum of the corrected PDA peak areas for the impurities and the PDA peak area for the API. The percentage recovery was the total corrected PDA peak area for the degraded sample divided by the total corrected peak are for the reference sample as indicated in the equation below.
Each peak area was determined based on the average of three different injections of the sample. The tables in FIG. 11 show example calculations of mass balance based on the experimental data.
The results of the molar mass balance calculations of data from the forced degradation studies using the RRF calculated in accordance with embodiments described herein are summarized in the table below and are graphically depicted in a chart in FIG. 12.

[3] = Example 2: forced degradation of glimepiride drug substance under acidic hydrolysis conditions, UV % impurities and mass balance; type: physicochemical; conditions: for % Impurities: UV
Procedure: (§2) The chromatographic system was an ultra-high performance liquid chromatography system, specifically, an ACQUITY UPLC H-Class system with a pump (ACQUITY Quaternary Solvent Manager (QSM)), an injector (ACQUITY Flow Through Needle (FTN) Autosampler) and a column manager (ACQUITY Column Manager). The autosampler was configured with a 50 μL extension loop. The seal wash was 90:10 water/methanol, purge solvent was methanol and the needle wash solvent was 0.1% (v/v) formic acid in 30:70 water/acetonitrile. Detection was performed with a photodiode array detector (ACQUITY UPLC PDA), an evaporative light scattering detector (ACQUITY UPLC ELSD) and a mass detector (ACQUITY QDa) (Waters, Milford, Mass.). The eluent flow path was plumbed from the column to a triple static tee (1:10 split flow) housed within a secondary pump (ACQUITY Isocratic Solvent Manager (ISM)). The tubing from the column to the tee was 22.5″ of 0.004″ ID tubing. In the first split, a portion of the flow was diverted to the PDA with 16″ of 100 μm ID fused silica tubing and then, in series, to the ELS detector with 12″ of 0.004″ ID PEEK tubing. Flow from the isocratic solvent manager was introduced into the second splitter, and the final portion of flow was diverted to the mass spectrometer via the detector probe (250 mm). The chromatography data system was Empower 3 FR3 (Waters, Milford, Mass.). The forced degradation was performed using a water bath (Isotemp) purchased from Fisher Scientific.
as §1
(§3) Over a period of 7 days, the drug substance was exposed to acidic, basic and oxidative conditions with goals of achieving approximately 10% degradation as quantified by UV. The samples were tested at 2 day intervals and analyzed by UV-ELS and MS.
Confirmation of the impurities was provided by the mass spectrometry.
(§4) Mass balance calculations were performed using the experimentally determined RRFs for acidic, oxidative and basic degradation conditions. […] Both the % impurity and recovery were impacted similarly, however, the implications for % impurity are greater, in that impurity reporting, identification and qualification thresholds can be impacted by as little as 0.05%.

[4] = Example 2: forced degradation of glimepiride drug substance under oxidative conditions (AIBN), UV % impurities and mass balance; type: physicochemical; conditions: for % Impurities: UV
Procedure: as §2, §1, §3
For example, FIG. 19 includes chromatograms from analysis of a glimepiride drug substance after 5 days of oxidation by AIBN. […] The third peak is a product of the AIBN oxidation (m/z 177.1)-*- as evidenced by analysis of the control. One of the unknown peaks present in the AIBN control (m/z=177.2 Da) was attributed to the reagent. As observed with the acidic hydrolysis of glimepiride, the by-product (m/z=114.1 Da) was also observed. In addition, the oxidation degradation produced two isobaric peaks as determined by the QDa measurement resulting in the same m/z values.
as §4, with “0.05%. […]” for “0.05%.”

[5] = Example 2: forced degradation of glimepiride drug substance under basic hydrolysis conditions, UV % impurities and mass balance; type: physicochemical; conditions: for % Area (impurity peaks found in base hydrolysis): degradation peak in glimepiride drug substance
Procedure: as §2, §1, §3
Under basic hydrolysis conditions, the drug substance degraded rapidly, over a period of 1 day with >10% of degradation. […] In contrast to the previously described analyses, many smaller impurity peaks were observed.
as §4

[6] = cited from earlier work
[7] = cited from earlier work; remark: listed apart in the source

## CC1CCC(N)CC1 (centres unmarked) [4-MeCHA, 4-methylcyclohexylamine]
[1]; 1 day
  4-MeCHA: 0.36 µg/mL
  4-MeCHA (%): 0.14%
[1]; 3 days
  4-MeCHA: 0.98 µg/mL
  4-MeCHA (%): 0.39%
[1]; 5 days
  4-MeCHA: 1.74 µg/mL
  4-MeCHA (%): 0.70%

## CCC1=C(C)CN(C(=O)NCCc2ccc(S(=O)(=O)NC(=O)NC3CCC(C)CC3)cc2)C1=O (stereo not drawn) [glimepiride, 1-[[4-[2[(3-ethyl-4-methyl-2-oxo-3pyrroline-1-carboxamido)ethyl]phenyl]-sulphony]-3-trans-(4-methylcyclohexyl)urea]]
[2]; 1 day
  Absolute Mass Balance Deficit: −0.6
[2]; 1 day, n = 3
  Amount: 239.0
[2]; 3 days
  Absolute Mass Balance Deficit: −4.3
[2]; 3 days, n = 3
  Amount: 242.7
[2]; 5 days
  Absolute Mass Balance Deficit: −0.7
[2]; 5 days, n = 3
  Amount: 239.1
[2]; 7 days
  Absolute Mass Balance Deficit: −5.7
[2]; 7 days, n = 3
  Amount: 244.1
[2]; T = 0
  Absolute Mass Balance Deficit: 2.3
[2]; T = 0, n = 3
  Amount: 236.1
[3]; 1 day
  % Impurities with RRF: 1.95%
  % Impurities: 2.35%
[3]; 3 days
  % Impurities with RRF: 5.14%
  % Impurities: 6.13%
[3]; 5 days
  % Impurities with RRF: 8.15%
  % Impurities: 9.72% and 9.67%
[3]; 7 days
  % Impurities with RRF: 16.69%
  % Impurities: 19.55%
[4]; 1 day
  % Impurities with RRF: 1.45%
  % Impurities: 1.75%
[4]; 3 days
  % Impurities with RRF: 4.05%
  % Impurities: 4.83%
[4]; 5 days
  % Impurities with RRF: 6.28%
  % Impurities: 7.45%
[4]; 7 days
  % Impurities with RRF: 8.42%
  % Impurities: 9.95%
[5]; basic hydrolysis, 1 day
  % Impurities with RRF: 11.99%
[5]; basic hydrolysis, 3 days
  % Impurities with RRF: 31.59%
[5]; basic hydrolysis, 3 days, UV
  % Impurities: 33.45%
[5]; basic hydrolysis, 5 days
  % Impurities with RRF: 51.92%
[1]; acidic hydrolysis conditions, over the time period
  increase of recoveries on adding 4-methylcylcohexylamine: 0.2-1.1%
[6]
  pKa value: 4.32
[7]
  soluble in methanol: 0.5 mg/mL

## CCC1=C(C)CN(C(=O)NCCc2ccc(S(=O)(=O)NC(=O)OC)cc2)C1=O [related compound C, methyl((4-(2-(3-ethyl-4-methyl-2-oxo-2,5-dihydro-1H-pyrrole-1-carboxamido)ethyl)phenyl)sulfonyl)carbamate]
[5]; 1 day, UV
  % Area (impurity peaks found in base hydrolysis): not observed

## CCC1=C(C)CN(C(=O)NCCc2ccc(S(N)(=O)=O)cc2)C1=O [Related compound B, 3-Ethyl-4-methyl-2-oxo-N-(4-sulfamoylphenethyl)-2,5-dihydro-1H-pyrrole-1-carboxamide]
[5]; 1 day, UV
  % Area (impurity peaks found in base hydrolysis): 1.83%
